Measured values: patent US4522803A (priority 1983, dated 1985)
Where two headings read alike, the source gives them in different places.

How the values were obtained:
B. canis [1] = assay type: cell-based; conditions: suspension culture
[2] = Retention and sustained release of gentamycin after topical application in eyes of mice
B. canis [3] = system: B. canis; design: species or system B. canis ATCC 23365; conditions: in vivo
B. abortus [4] = system: B. abortus; design: species or system B. abortus ATCC 23451; conditions: in vivo, ip, 10 mg/kg
B. canis antigen = conditions: in vivo
B. canis [5] = system: B. canis; design: species or system B. canis ATCC 23365; conditions: in vivo; remark: listed apart in the source
B. abortus [6] = assay type: cell-based; conditions: mean ± SD of 12 replicates; streptomycin 1 mg/ml, 24 hours
M. bovis = assay type: in vivo
B. canis [7] = system: B. canis; design: species or system B. canis ATCC 23365; conditions: in vivo, ip, 10 mg/kg
B. canis [8] = system: B. canis; design: species or system B. canis ATCC 23365; conditions: in vivo, ip, 10 mg/kg; remark: listed apart in the source
B. canis [9] = assay type: cell-based

For Gentamycin, the “Killing of B. canis in vitro” value (B. canis [1]) was “kill B. canis in vitro”, the “Gentamycin retained in eyelid tissue” value ([2]; 4 hours, topical) was “less than 5%” and the Gentamycin sulfate cleared ([2]; within a 4 hour period) was 95%.

In the case of `CN[C@@H]1[C@H](O[C@H]2[C@H](O[C@H]3[C@H](O)[C@@H](O)[C@H](NC(=N)N)[C@@H](O)[C@@H]3NC(=N)N)O[C@@H](C)[C@]2(O)CO)O[C@@H](CO)[C@H](O)[C@H]1O` [Dihydrostreptomycin], the “Colony-Forming Units B. Canis Per Spleen” value (B. canis [3]) is reported as 1.13 ± 0.30 × 10^5 and the “Killing of B. canis in vitro” value (B. canis [1]) is reported as “kill B. canis in vitro”.

With `[H]/N=C(/N)N[C@H]1[C@H](O)[C@@H](O)[C@H](O[C@@H]2O[C@@H](C)[C@](O)(C=O)[C@H]2O[C@@H]2O[C@@H](CO)[C@H](O)[C@@H](O)[C@@H]2NC)[C@@H](N/C(N)=N\[H])[C@@H]1O` [Streptomycin] the “Surviving B. abortus in spleen” value (B. abortus [4]) was “viable B. abortus bacteria were be identified”, the “M (2-mercaptoethanol tube agglutination test), reciprocal of serum titer” value (B. canis antigen) was 0 × 10^2 and the “R (rapid slide agglutination test), reciprocal of serum titer” value (B. canis antigen) was 0 × 10^2. The “Serum antibody against B. canis” value (B. canis antigen; ip, 10 mg/kg) was “developed detectable serum titers against B. canis antigens by day 21 post-inoculation”, the “Colony-Forming Units B. Canis Per Spleen” value (B. canis [3]) was 1.01 ± 0.17 × 10^5 and the “Surviving B. canis in spleens” value (B. canis [5]) was “very little reduction in surviving B. canis in spleens was observed”. For the same molecule, the “Killing of B. canis in vitro” value (B. canis [1]) was “kill B. canis in vitro”, the “Colony-forming units of intracellular B. abortus” value (B. abortus [6]) was 3.3 ± 0.25 × 10^4 CFU and the “M. Bovis cultures positive” value (M. bovis; UV-radiated, day 3 post-treatment) was 3/5. The “M. Bovis cultures positive” value (M. bovis; UV-radiated, day 5 post-treatment) was 4/5, the “Number of mice with corneal opacity score 0” value (M. bovis; UV-radiated, post-treatment) was 14 and the “Number of mice with corneal opacity score 1 (loss of normal luster)” value (“Number of mice … (loss of normal luster)” for short) (M. bovis; UV-radiated, post-treatment) was 3. The “Number of mice with corneal opacity score 2 (small foci of opacity)” value (shortened to “Number of mice … (small foci of opacity)”) (M. bovis; UV-radiated, post-treatment) was 2, the “Number of mice with corneal opacity score 3 (partial opacity)” value (“Number of mice … (partial opacity)” below) (M. bovis; UV-radiated, post-treatment) was 1 and the “Number of mice with corneal opacity score 4 (total opacity)” value (“Number of mice … (total opacity)” below) (M. bovis; UV-radiated, post-treatment) was 0. The “Number of mice with corneal opacity score 0” value (M. bovis; UV-radiated, pre-treatment) was 0, the “Number of mice … (loss of normal luster)” value (M. bovis; UV-radiated, pre-treatment) was 4 and the “Number of mice … (small foci of opacity)” value (M. bovis; UV-radiated, pre-treatment) was 9. For the same molecule, the “Number of mice … (partial opacity)” value (M. bovis; UV-radiated, pre-treatment) was 7, the “Number of mice … (total opacity)” value (M. bovis; UV-radiated, pre-treatment) was 0 and the “M. Bovis cultures positive” value (M. bovis; non-radiated, day 3 post-treatment) was 2/5. The “M. Bovis cultures positive” value (M. bovis; non-radiated, day 5 post-treatment) was 2/5, the “Number of mice with corneal opacity score 0” value (M. bovis; non-radiated, post-treatment) was 18 and the “Number of mice … (loss of normal luster)” value (M. bovis; non-radiated, post-treatment) was 2. For the same molecule, the “Number of mice … (small foci of opacity)” value (M. bovis; non-radiated, post-treatment) was 0, the “Number of mice … (partial opacity)” value (M. bovis; non-radiated, post-treatment) was 0 and the “Number of mice … (total opacity)” value (M. bovis; non-radiated, post-treatment) was 0. For the same molecule, the “Number of mice with corneal opacity score 0” value (M. bovis; non-radiated, pre-treatment) was 18, the “Number of mice … (loss of normal luster)” value (M. bovis; non-radiated, pre-treatment) was 1 and the “Number of mice … (small foci of opacity)” value (M. bovis; non-radiated, pre-treatment) was 1. For the same molecule, the “Number of mice … (partial opacity)” value (M. bovis; non-radiated, pre-treatment) was 0, the “Number of mice … (total opacity)” value (M. bovis; non-radiated, pre-treatment) was 0 and the “Blood and vaginal culture outcome” value (B. canis [7]) was “remained culture positive for blood and vaginal cultures during post-treatment periods”. The “Surviving B. canis per organ” value (B. canis [8]) was “viable B. canis organisms could be isolated in all tissues sampled” and the “Colony-forming units of intracellular B. canis” value (B. canis [9]) was 3.11 + 0.40 × 10^3 CFU.
